Test results: BindingDB's records for patent US20250313563 (The Broad Institute, 2025)
Values joined by “and” are separate entries in the source; they are usually repeats but may differ in a detail not shown here. Equal entries are not always repeated.

What was measured:
[1] = target: Glycogen synthase kinase-3 alpha (Homo sapiens, UniProt P49840); experiment: TR-FRET Assay
Summary of the method: (§1)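 TR-FRET readout: streptavidin-d2 (40 nM in added detection mix) plus Tb-anti-pSer641 Ab (2 nM in mix). Steps were 30 min compound preincubation, kinase reaction, then EDTA stop.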

[2] = target: Glycogen synthase kinase-3 beta (Homo sapiens, UniProt P49841); experiment: TR-FRET Assay
Summary of the method: as §1

Glycogen synthase kinase-3 alpha, sequence (P49840 whole entry): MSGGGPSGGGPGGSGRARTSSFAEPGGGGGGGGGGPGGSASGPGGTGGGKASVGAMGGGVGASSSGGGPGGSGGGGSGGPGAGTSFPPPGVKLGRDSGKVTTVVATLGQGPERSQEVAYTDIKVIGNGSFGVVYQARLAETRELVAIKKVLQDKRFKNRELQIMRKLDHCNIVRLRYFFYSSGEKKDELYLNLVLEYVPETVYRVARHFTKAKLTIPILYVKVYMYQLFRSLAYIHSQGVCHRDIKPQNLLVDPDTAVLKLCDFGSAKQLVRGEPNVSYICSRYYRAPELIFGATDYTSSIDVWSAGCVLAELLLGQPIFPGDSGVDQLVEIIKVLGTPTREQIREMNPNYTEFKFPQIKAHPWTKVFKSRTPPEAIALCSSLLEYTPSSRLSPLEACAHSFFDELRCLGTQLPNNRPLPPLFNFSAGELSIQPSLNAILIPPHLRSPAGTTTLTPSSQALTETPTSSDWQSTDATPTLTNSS
Glycogen synthase kinase-3 beta, sequence (P49841 whole entry): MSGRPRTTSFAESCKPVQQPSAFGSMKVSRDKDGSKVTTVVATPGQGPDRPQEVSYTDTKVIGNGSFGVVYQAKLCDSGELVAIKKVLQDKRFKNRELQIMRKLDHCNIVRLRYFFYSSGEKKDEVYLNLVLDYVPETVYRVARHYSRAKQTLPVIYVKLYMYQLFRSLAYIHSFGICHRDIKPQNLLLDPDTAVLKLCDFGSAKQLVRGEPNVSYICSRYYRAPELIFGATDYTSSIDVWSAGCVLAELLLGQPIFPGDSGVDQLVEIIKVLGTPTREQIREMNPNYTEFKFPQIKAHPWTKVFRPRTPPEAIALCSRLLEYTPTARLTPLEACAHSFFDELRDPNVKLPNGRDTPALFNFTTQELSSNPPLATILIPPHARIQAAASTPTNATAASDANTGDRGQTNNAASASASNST

SMILES	IC50 [1]	IC50 [2]
CC(C)n1ccc(S(=O)(=O)N2CCC3(CC2)C2=C(N=NC2)NC2=C3C(=O)CC(C)(C)C2)n1 [US20250313563, Compound 947258]	< 100 nM	< 100 nM
Cc1nc(C)c(S(=O)(=O)N2CCC3(CC2)C2=C(N=NC2)NC2=C3C(=O)CC(C)(C)C2)s1 [US20250313563, Compound 947259]	< 100 nM	< 100 nM
COc1ncccc1S(=O)(=O)N1CCC2(CC1)C1=C(N=NC1)NC1=C2C(=O)CC(C)(C)C1 [US20250313563, Compound 947260]	< 100 nM	< 100 nM and 100 to 1000 nM
Cc1cccc(S(=O)(=O)N2CCC3(CC2)C2=C(N=NC2)NC2=C3C(=O)CC(C)(C)C2)c1 [US20250313563, Compound 947261]	< 100 nM	< 100 nM
CC1(C)CC(=O)C2=C(C1)NC1=C(CN=N1)C21CCN(S(=O)(=O)c2cc(F)ccn2)CC1 [US20250313563, Compound 947262]	100 to 1000 nM	100 to 1000 nM
COc1cc(S(=O)(=O)N2CCC3(CC2)C2=C(N=NC2)NC2=C3C(=O)CC(C)(C)C2)ccc1F [US20250313563, Compound 947263]	< 100 nM and 100 to 1000 nM	< 100 nM and 1000 to 5000 nM
CC1(C)CC(=O)C2=C(C1)NC1=C(CN=N1)C21CCN(S(=O)(=O)c2cccc(C(F)F)c2)CC1 [US20250313563, Compound 947264]	< 100 nM	< 100 nM and 100 to 1000 nM
CC1(C)CC(=O)C2=C(C1)NC1=C(CN=N1)C21COC2(CN(C(=O)C3CCC(F)(F)C3)C2)C1 (configuration not stated) [US20250313563, Compound 947265]	< 100 nM	100 to 1000 nM
CC1CC(C(=O)N2CC3(C2)CC2(CO3)C3=C(N=NC3)NC3=C2C(=O)CC(C)(C)C3)C1 (configuration not stated) [US20250313563, Compound 947266]	< 100 nM	< 100 nM
CC1(C)CC(=O)C2=C(C1)NC1=C(CN=N1)C21COC2(CN(C(=O)C3CCC(F)CC3)C2)C1 (configuration not stated) [US20250313563, Compound 947267]	< 100 nM	100 to 1000 nM
CC1CCC(C(=O)N2CC3(C2)CC2(CO3)C3=C(N=NC3)NC3=C2C(=O)CC(C)(C)C3)C1 (configuration not stated) [US20250313563, Compound 947268]	< 100 nM	< 100 nM
CC1CCC(CC(=O)N2CC3(C2)CC2(CO3)C3=C(N=NC3)NC3=C2C(=O)CC(C)(C)C3)C1 (configuration not stated) [US20250313563, Compound 947269]	< 100 nM and 100 to 1000 nM	< 100 nM and 100 to 1000 nM
CCC(C)C(=O)N1CC2(C1)CC1(CO2)C2=C(N=NC2)NC2=C1C(=O)CC(C)(C)C2 (configuration not stated) [US20250313563, Compound 947270]	< 100 nM	100 to 1000 nM
CC1(C)CC(=O)C2=C(C1)NC1=C(CN=N1)C21COC2(CN(C(=O)C3(C)CC(F)C3)C2)C1 (configuration not stated) [US20250313563, Compound 947271]	< 100 nM	100 to 1000 nM
CC1(C)CC(=O)C2=C(C1)NC1=C(CN=N1)C21COC2(CN(C(=O)C3CC3(F)F)C2)C1 (configuration not stated) [US20250313563, Compound 947272]	< 100 nM	< 100 nM
CC(C)C1CC(C(=O)N2CC3(C2)CC2(CO3)C3=C(N=NC3)NC3=C2C(=O)CC(C)(C)C3)C1 (configuration not stated) [US20250313563, Compound 947273]	< 100 nM	< 100 nM
CC1CCCC1C(=O)N1CC2(C1)CC1(CO2)C2=C(N=NC2)NC2=C1C(=O)CC(C)(C)C2 (configuration not stated) [US20250313563, Compound 947274]	< 100 nM	100 to 1000 nM
CC1(C)CC(=O)C2=C(C1)NC1=C(CN=N1)C21COC2(CN(C(=O)C(C)(F)F)C2)C1 (configuration not stated) [US20250313563, Compound 947275]	< 100 nM and 100 to 1000 nM	< 100 nM and 100 to 1000 nM
CC1(C)CC(=O)C2=C(C1)NC1=C(CN=N1)C21COC2(CN(C(=O)C(C)(C)F)C2)C1 (configuration not stated) [US20250313563, Compound 947276]	< 100 nM	< 100 nM
CC1(C)CC(=O)C2=C(C1)NC1=C(CN=N1)C21COC2(CN(C(=O)C3(F)CCCC3)C2)C1 (configuration not stated) [US20250313563, Compound 947277]	< 100 nM	< 100 nM
CC1(C)CC(=O)C2=C(C1)NC1=C(CN=N1)C21COC2(CN(C(=O)CC3CC(F)(F)C3)C2)C1 (configuration not stated) [US20250313563, Compound 947278]	< 100 nM	< 100 nM
CC1(C)CC(=O)C2=C(C1)NC1=C(CN=N1)C21COC2(CN(C(=O)C3(F)CCC3)C2)C1 (configuration not stated) [US20250313563, Compound 947279]	< 100 nM	< 100 nM
CC1(C)CC(=O)C2=C(C1)NC1=C(CN=N1)C21COC2(CN(C(=O)C(F)(F)F)C2)C1 (configuration not stated) [US20250313563, Compound 947280]	< 100 nM	< 100 nM
Cc1ccc(CC(=O)N2CC3(C2)CC2(CO3)C3=C(N=NC3)NC3=C2C(=O)CC(C)(C)C3)cc1 (configuration not stated) [US20250313563, Compound 947281]	< 100 nM and 100 to 1000 nM	< 100 nM and 100 to 1000 nM
CC1(C)CC(=O)C2=C(C1)NC1=C(CN=N1)C21COC2(CN(C(=O)C3CC(C)(C)C3)C2)C1 (configuration not stated) [US20250313563, Compound 947282]	< 100 nM	100 to 1000 nM
CC1(C)CC(=O)C2=C(C1)NC1=C(CN=N1)C21COC2(CN(C(=O)c3cccc(F)c3)C2)C1 (configuration not stated) [US20250313563, Compound 947283]	< 100 nM	< 100 nM

SMILES	IC50 [1]	IC50 [2]
Cc1cccc(C(=O)N2CC3(C2)CC2(CO3)C3=C(N=NC3)NC3=C2C(=O)CC(C)(C)C3)c1C (configuration not stated) [US20250313563, Compound 947284]	< 100 nM	100 to 1000 nM
Cc1ccc(C)c(C(=O)N2CC3(C2)CC2(CO3)C3=C(N=NC3)NC3=C2C(=O)CC(C)(C)C3)c1 (configuration not stated) [US20250313563, Compound 947285]	< 100 nM	100 to 1000 nM
Cc1ccc(C(=O)N2CC3(C2)CC2(CO3)C3=C(N=NC3)NC3=C2C(=O)CC(C)(C)C3)cc1C (configuration not stated) [US20250313563, Compound 947286]	< 100 nM	< 100 nM
Cc1ccccc1C(=O)N1CC2(C1)CC1(CO2)C2=C(N=NC2)NC2=C1C(=O)CC(C)(C)C2 (configuration not stated) [US20250313563, Compound 947287]	< 100 nM	100 to 1000 nM
CC1(C)CC(=O)C2=C(C1)NC1=C(CN=N1)C21COC2(CN(C(=O)C3CCC3)C2)C1 (configuration not stated) [US20250313563, Compound 947288]	< 100 nM and 100 to 1000 nM	< 100 nM and 100 to 1000 nM
CC1(C)CC(=O)C2=C(C1)NC1=C(CN=N1)C21COC2(CN(C(=O)c3ccccc3F)C2)C1 (configuration not stated) [US20250313563, Compound 947289]	< 100 nM	< 100 nM
Cc1ccc(C(=O)N2CC3(C2)CC2(CO3)C3=C(N=NC3)NC3=C2C(=O)CC(C)(C)C3)cc1 (configuration not stated) [US20250313563, Compound 947290]	< 100 nM	< 100 nM
CC1(C)CC(=O)C2=C(C1)NC1=C(CN=N1)C21COC2(CN(C(=O)C3CCCCC3)C2)C1 (configuration not stated) [US20250313563, Compound 947291]	< 100 nM	100 to 1000 nM
CC1(C)CC(=O)C2=C(C1)NC1=C(CN=N1)C21COC2(CN(C(=O)c3ccc(F)cc3)C2)C1 (configuration not stated) [US20250313563, Compound 947292]	< 100 nM	< 100 nM
CC1(C)CC(=O)C2=C(C1)NC1=C(CN=N1)C21COC2(CN(C(=O)CC3CCCC3)C2)C1 (configuration not stated) [US20250313563, Compound 947293]	< 100 nM	< 100 nM
Cc1ccc(C(=O)N2CC3(C2)CC2(CO3)C3=C(N=NC3)NC3=C2C(=O)CC(C)(C)C3)c(C)c1 (configuration not stated) [US20250313563, Compound 947294]	< 100 nM	100 to 1000 nM
Cc1ccccc1CC(=O)N1CC2(C1)CC1(CO2)C2=C(N=NC2)NC2=C1C(=O)CC(C)(C)C2 (configuration not stated) [US20250313563, Compound 947295]	< 100 nM	< 100 nM
Cc1cc(C)cc(C(=O)N2CC3(C2)CC2(CO3)C3=C(N=NC3)NC3=C2C(=O)CC(C)(C)C3)c1 (configuration not stated) [US20250313563, Compound 947296]	< 100 nM	< 100 nM
CC1(C)CC(=O)C2=C(C1)NC1=C(CN=N1)C21COC2(CN(C(=O)C3CC3)C2)C1 (configuration not stated) [US20250313563, Compound 947297]	< 100 nM	< 100 nM
CC1(C)CC(=O)C2=C(C1)NC1=C(CN=N1)C21COC2(CN(C(=O)CC3CC3)C2)C1 (configuration not stated) [US20250313563, Compound 947298]	< 100 nM	< 100 nM
CC1(C)CC(=O)C2=C(C1)NC1=C(CN=N1)C21COC2(CN(C(=O)CC3CCC3)C2)C1 (configuration not stated) [US20250313563, Compound 947299]	< 100 nM	< 100 nM
CCCC(=O)N1CC2(C1)CC1(CO2)C2=C(N=NC2)NC2=C1C(=O)CC(C)(C)C2 (configuration not stated) [US20250313563, Compound 947300]	< 100 nM	< 100 nM
CC(C)(C)CC(=O)N1CC2(C1)CC1(CO2)C2=C(N=NC2)NC2=C1C(=O)CC(C)(C)C2 (configuration not stated) [US20250313563, Compound 947301]	100 to 1000 nM	1000 to 5000 nM
CC(C)CC(=O)N1CC2(C1)CC1(CO2)C2=C(N=NC2)NC2=C1C(=O)CC(C)(C)C2 (configuration not stated) [US20250313563, Compound 947302]	< 100 nM	< 100 nM
CC1(C)CC(=O)C2=C(C1)NC1=C(CN=N1)C21COC2(CN(C(=O)C(C)(C)C)C2)C1 (configuration not stated) [US20250313563, Compound 947303]	< 100 nM	< 100 nM
CC(C)C(=O)N1CC2(C1)CC1(CO2)C2=C(N=NC2)NC2=C1C(=O)CC(C)(C)C2 (configuration not stated) [US20250313563, Compound 947304]	< 100 nM	100 to 1000 nM
CC1(C)CC(=O)C2=C(C1)NC1=C(CN=N1)C21COC2(CN(C(=O)CC3CCCCC3)C2)C1 (configuration not stated) [US20250313563, Compound 947305]	< 100 nM	< 100 nM
CC1(C)CC(=O)C2=C(C1)NC1=C(CN=N1)C21COC2(CN(C(=O)Cc3ccccc3)C2)C1 (configuration not stated) [US20250313563, Compound 947306]	< 100 nM	< 100 nM
CC1(C)CC(=O)C2=C(C1)NC1=C(CN=N1)C21COC2(CN(C(=O)C3(C)CCCC3)C2)C1 (configuration not stated) [US20250313563, Compound 947307]	< 100 nM	< 100 nM
CC1(C)CC(=O)C2=C(C1)NC1=C(CN=N1)C21COC2(CN(C(=O)C3CCCCCC3)C2)C1 (configuration not stated) [US20250313563, Compound 947308]	< 100 nM	100 to 1000 nM
